Measurements from patent publication US12528813B2, “Substituted imidazo[4,5-b]pyridines as M3 receptor PAMs” (NIPPON SHINYAKU CO., LTD., priority 2019, dated 2026).

Key:
anesthetized rats [1] = assay: Effect on increase in intravesical pressure induced by pelvic nerve electrical stimulation in anesthetized rats; format: in vivo, rat; conditions: anesthetized SD female rats; for Ratio of Change Rc of AUC of increase in intravesical pressure (maximum during 1 hour after administration) / change in vivo at 0.3 mg/kg: test compound 0.3 mg/kg intravenous, single dose; for change in vivo at 0.3 mg/kg: Rattus norvegicus, 1 h, read-out: Ratio of Change Rc of AUC of increase in intravesical pressure (maximum during 1 hour after administration)
Procedure: As the action of nerve stimulation-dependent bladder contraction in vivo, the action of the test compound on increase in intravesical pressure induced by pelvic nerve electrical stimulation using rats was measured by the following method.
SD female rats (Japan SLC, Inc.) were anesthetized by subcutaneously administering 1200 mg/kg of urethane (manufactured by Fujifilm Wako Pure Chemical Industries, Ltd.), and then the lower abdomen of each rat was incised at the midline. After the ureters on both sides were ligated and cut, a cannula for measuring intravesical pressure (PE-60, manufactured by BECTON DICKINSON) was inserted into the bladder through the external urethral orifice and fixed with sutures. After about 200 μL of saline was injected via the cannula inserted into the bladder, the other end of the cannula was connected to a pressure transducer to measure intravesical pressure.
The pelvic nerve near the bladder of the rat was separated under stereomicroscope observation and an electrode for nerve stimulation (K2-14015M-PT, manufactured by BrainScience idea. Co., Ltd.) was attached. The peritoneal cavity of the rat was filled with liquid paraffin (26114-75, NACALAI TESQUE, INC.). After the postoperative rest period, the pelvic nerve was electrically stimulated to cause an increase in intravesical pressure, using an electrical stimulator (SEN-7203, manufactured by NIHON KOHDEN CORPORATION). At this time, the stimulation frequency was set to 8 Hz, the pulse width was set to 0.3 ms, and the stimulation time was set to 10 seconds. The voltage of the electrical stimulator was adjusted such that the increase in intravesical pressure was about 50% to 70% of that at stimulation with 10 V.
Then, the electric stimulation was repeated at an interval of 10 minutes. After the increase in intravesical pressure induced by electric stimulation was stabilized three times or more, a test compound (dosage 0.3 mg/kg), distigmine bromide (dosage 0.03, 0.1 mg/kg), or a vehicle was intravenously administered at a single dosage of 1.0 mL/kg via a catheter placed into a femoral vein, and the effect of the test compound on increase in intravesical pressure was measured for 1 hour. Saline was used as a vehicle, and the test compound was dissolved in dimethylsulfoxide and then added to the vehicle. At this time, the final concentration of dimethylsulfoxide was set to 10%.
The response data (intravesical pressure) were imported to a personal computer via a data collection and analysis system (PowerLab (registered trademark), manufactured by ADInstruments) and analyzed using analysis software (LabChart (registered trademark), manufactured by ADInstruments). For each electric stimulation, AUC of the increase in intravesical pressure (area under the curve of plot of intravesical pressure) was calculated, and a ratio of change Rc (unit: %) with respect to the value (AUC) before administering the test compound was calculated according to the following equation (2). In the equation (2), Ab denotes AUC before administering the test compound, and Aa denotes AUC after administering the test compound. In addition, the maximum effect observed during 1 hour after administering the test compound (maximum ratio of change Rc) was defined as the effect of the test compound. The higher the ratio of change Rc, the higher the effect of enhancing bladder contraction force and the higher the effect of increasing intravesical pressure. Rc=100×(Aa−Ab)/Ab (2)

anesthetized rats [2] = assay: as above; format: in vivo, rat; conditions: intravenous, 0.1 mg/kg

Compound | change in vivo at 0.3 mg/kg (anesthetized rats [1]) | further results
COCC1(CN(C)c2cc(-c3cnc(C4CC4)c(C(F)(F)F)c3)nc3nc(NC(=O)c4ccc(C5CC5C(=O)O)cn4)[nH]c23)CCCC1 (stereo not drawn) [Compound 49] |  | Ratio of Change Rc of AUC of increase in intravesical pressure (maximum during 1 hour after administration) (anesthetized rats [1]): 43.6%
COCC1(CN(C)c2cc(-c3cc(C4CC4)nc(C(F)(F)F)c3)nc3nc(NC(=O)c4ccc(CCC(=O)O)cn4)[nH]c23)CCCC1 [Example 3, 3-[6-({5-[2-Cyclopropyl-6-(trifluoromethyl)pyridin-4-yl]-7-({[1-(methoxymethyl)cyclopentyl]methyl}(methyl)amino)-1H-imidazo[4,5-b]pyridin-2-yl}carbamoyl)pyridin-3-yl]propanoic acid] | 28.5% | 
CCOc1ncc(-c2cc(N(C)CC3(COC)CCCCC3)c3[nH]c(NC(=O)c4ccc(CCCC(=O)O)cn4)nc3n2)cc1C(F)(F)F [Example 14, 4-[6-({5-[6-Ethoxy-5-(trifluoromethyl)pyridin-3-yl]-7-({[1-(methoxymethyl)cyclohexyl]methyl}(methyl)amino)-1H-imidazo[4,5-b]pyridin-2-yl}carbamoyl)pyridin-3-yl]butanoic acid] | 70.4% | 
COCC1(CN(C)c2cc(-c3cc(C4CC4)nc(C(F)(F)F)c3)nc3nc(NC(=O)c4cc5c(cn4)CN(CCC(=O)O)CC5)[nH]c23)CCCC1 [Example 10, 3-[6-({5-[2-Cyclopropyl-6-(trifluoromethyl)pyridin-4-yl]-7-({[1-(methoxymethyl)cyclopentyl]methyl}(methyl)amino)-1H-imidazo[4,5-b]pyridin-2-yl}carbamoyl)-1,2,3,4-tetrahydro-2,7-naphthyridin-2-yl]propanoic acid] | 33.7% | 
COCC1(CN(C)c2cc(-c3cnc(C4CC4)c(C(F)(F)F)c3)nc3nc(NC(=O)c4cn(CCCC(=O)O)cn4)[nH]c23)CCCC1 [Example 7, 4-[4-({5-[6-Cyclopropyl-5-(trifluoromethyl)pyridin-3-yl]-7-({[1-(methoxymethyl)cyclopentyl]methyl}(methyl)amino)-1H-imidazo[4,5-b]pyridin-2-yl}carbamoyl)-1H-imidazol-1-yl]butanoic acid] | 41.8% | 
COCC1(CN(C)c2cc(-c3cnc(C4CC4)c(C(F)(F)F)c3)nc3nc(NC(=O)c4cn5c(n4)CCC(C(=O)O)C5)[nH]c23)CCCC1 (stereo not drawn) [Example 5, 2-({5-[6-Cyclopropyl-5-(trifluoromethyl)pyridin-3-yl]-7-({[1-(methoxymethyl)cyclopentyl]methyl}(methyl)amino)-1H-imidazo[4,5-b]pyridin-2-yl}carbamoyl)-5,6,7,8-tetrahydroimidazo[1,2-a]pyridine-6-carboxylic acid] | 49.1% | 
COCC1(CN(C)c2cc(-c3cnc(C4CC4)c(C(F)(F)F)c3)nc3nc(NC(=O)c4ccc(CCCC(=O)O)cn4)[nH]c23)CCCCC1 [Example 11, 4-[6-({5-[6-Cyclopropyl-5-(trifluoromethyl)pyridin-3-yl]-7-({[1-(methoxymethyl)cyclohexyl]methyl}(methyl)amino)-1H-imidazo[4,5-b]pyridin-2-yl}carbamoyl)pyridin-3-yl]butanoic acid] | 80.7% | 
CCOc1ncc(-c2cc(N(C)CC3(COC)CCCC3)c3[nH]c(NC(=O)c4ccc(CCCC(=O)O)cn4)nc3n2)cc1C(F)(F)F [Example 12, 4-[6-({5-[6-Ethoxy-5-(trifluoromethyl)pyridin-3-yl]-7-({[1-(methoxymethyl)cyclopentyl]methyl}(methyl)amino)-1H-imidazo[4,5-b]pyridin-2-yl}carbamoyl)pyridin-3-yl]butanoic acid] | 53.4% | 
COCC1(CN(C)c2cc(-c3cnc(C4CC4)c(C(F)(F)F)c3)nc3nc(NC(=O)c4ccc(CCCC(=O)O)cn4)[nH]c23)CCCC1 [Example 8, 4-[6-({5-[6-Cyclopropyl-5-(trifluoromethyl)pyridin-3-yl]-7-({[1-(methoxymethyl)cyclopentyl]methyl}(methyl)amino)-1H-imidazo[4,5-b]pyridin-2-yl}carbamoyl)pyridin-3-yl]butanoic acid] | 85.7% | 
CCOc1ncc(-c2cc(N(C)CC3(COC)CCCCC3)c3[nH]c(NC(=O)c4ccc(CCC(=O)O)cn4)nc3n2)cc1C(F)(F)F [Example 13] | 113% | 
CCOc1cc(-c2cc(N(C)CC3(COC)CCCC3)c3[nH]c(NC(=O)c4ccc(CCC(=O)O)cn4)nc3n2)cc(C(F)(F)F)n1 [Example 2, 3-[6-({5-[2-Ethoxy-6-(trifluoromethyl)pyridin-4-yl]-7-({[1-(methoxymethyl)cyclopentyl]methyl}(methyl)amino)-1H-imidazo[4,5-b]pyridin-2-yl}carbamoyl)pyridin-3-yl]propanoic acid] | 36.5% | 
COCC1(CN(C)c2cc(-c3cnc(C4CC4)c(C(F)(F)F)c3)nc3nc(NC(=O)c4ccc(CCC(=O)O)cn4)[nH]c23)CCCC1 [Example 1, 3-[6-({5-[6-Cyclopropyl-5-(trifluoromethyl)pyridin-3-yl]-7-({[1-(methoxymethyl)cyclopentyl]methyl}(methyl)amino)-1H-imidazo[4,5-b]pyridin-2-yl}carbamoyl)pyridin-3-yl]propanoic acid] | 55.3% | 
COCC1(CN(C)c2cc(-c3cnc(C4CC4)c(C(F)(F)F)c3)nc3nc(NC(=O)c4ccc(CC(C)C(=O)O)cn4)[nH]c23)CCCC1 (stereo not drawn) [Example 4, 3-[6-({5-[6-Cyclopropyl-5-(trifluoromethyl)pyridin-3-yl]-7-({[1-(methoxymethyl)cyclopentyl]methyl}(methyl)amino)-1H-imidazo[4,5-b]pyridin-2-yl}carbamoyl)pyridin-3-yl]-2-methylpropanoic acid] | 89.5% | 
CCOc1cc(-c2cc(N(C)CC3(COC)CCCC3)c3[nH]c(NC(=O)c4cc5c(cn4)CN(CCC(=O)O)CC5)nc3n2)cc(C(F)(F)F)n1 [Example 9] | 44% | 
COCC1(CN(C)c2cc(-c3cnc(C4CC4)c(C(F)(F)F)c3)nc3nc(NC(=O)c4ccc(CN(C)CC(=O)O)cn4)[nH]c23)CCCC1 [Example 6] | 55.1% | 
CN(CCCCCCN(C)C(=O)Oc1ccc[n+](C)c1)C(=O)Oc1ccc[n+](C)c1 [distigmine bromide, reference compound] |  | effect of enhancing bladder contraction force (anesthetized rats [1]; intravenous, test compound 0.3 mg/kg, distigmine bromide 0.03, 0.1 mg/kg): exhibited an effect of enhancing bladder contraction force; nicotinic side effect (fasciculation) (anesthetized rats [2]): a nicotinic side effect (fasciculation) was observed
COCC1(CN(C)c2cc(-c3cnc(C4CC4)c(C(F)(F)F)c3)nc3nc(NC(=O)c4cn(C[C@@H](C)C(=O)O)cn4)[nH]c23)CCCC1 [Compound 53] |  | Ratio of Change Rc of AUC of increase in intravesical pressure (maximum during 1 hour after administration) (anesthetized rats [1]): 50.2%
